# Read-outs that look alike come from different tables or passages of the source.
# How the values were obtained:
# 5-HT2C receptor = biological target: T1, 5-HT2C receptor (Homo sapiens, UniProt P28335); assay: cell-based
# T1 construct: host or cells: HEK293
# T1 sequence (P28335 33-458): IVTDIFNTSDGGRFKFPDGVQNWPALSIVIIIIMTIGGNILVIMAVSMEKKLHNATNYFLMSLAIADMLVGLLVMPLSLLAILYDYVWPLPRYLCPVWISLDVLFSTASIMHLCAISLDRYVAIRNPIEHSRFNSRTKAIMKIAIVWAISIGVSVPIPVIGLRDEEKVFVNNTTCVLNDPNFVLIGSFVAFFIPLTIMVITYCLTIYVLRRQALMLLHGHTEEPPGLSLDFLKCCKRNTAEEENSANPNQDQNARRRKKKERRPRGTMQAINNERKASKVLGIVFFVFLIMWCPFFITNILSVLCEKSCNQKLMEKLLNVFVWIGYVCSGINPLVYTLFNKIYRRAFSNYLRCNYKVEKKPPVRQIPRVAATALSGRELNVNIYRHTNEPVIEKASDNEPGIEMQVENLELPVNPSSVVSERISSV
# 5-HT2B receptor = biological target: T2, 5-HT2B receptor (Homo sapiens, UniProt P41595); assay: cell-based
# T2 construct: host or cells: CHO-K1
# T2 sequence (P41595 whole entry): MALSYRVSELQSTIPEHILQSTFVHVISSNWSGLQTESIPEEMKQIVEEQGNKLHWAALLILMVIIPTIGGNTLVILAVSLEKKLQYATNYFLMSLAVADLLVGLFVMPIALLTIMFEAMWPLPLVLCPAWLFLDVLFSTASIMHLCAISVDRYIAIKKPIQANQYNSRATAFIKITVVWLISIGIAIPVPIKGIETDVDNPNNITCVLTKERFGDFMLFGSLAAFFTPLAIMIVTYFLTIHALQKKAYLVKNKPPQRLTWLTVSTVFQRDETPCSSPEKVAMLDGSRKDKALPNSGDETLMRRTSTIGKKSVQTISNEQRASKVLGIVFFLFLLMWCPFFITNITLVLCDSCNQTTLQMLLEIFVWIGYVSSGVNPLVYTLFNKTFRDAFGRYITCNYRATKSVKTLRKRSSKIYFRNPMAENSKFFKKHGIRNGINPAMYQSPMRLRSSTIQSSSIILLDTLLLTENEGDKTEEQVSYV
# 5-HT2A receptor = biological target: T3, 5-HT2A receptor (Homo sapiens, UniProt P28223); assay: FLIPR Ca2+ flux functional assay, 5-HT2A; type: cell-based
# T3 construct: host or cells: HEK293
# T3 sequence (P28223 whole entry): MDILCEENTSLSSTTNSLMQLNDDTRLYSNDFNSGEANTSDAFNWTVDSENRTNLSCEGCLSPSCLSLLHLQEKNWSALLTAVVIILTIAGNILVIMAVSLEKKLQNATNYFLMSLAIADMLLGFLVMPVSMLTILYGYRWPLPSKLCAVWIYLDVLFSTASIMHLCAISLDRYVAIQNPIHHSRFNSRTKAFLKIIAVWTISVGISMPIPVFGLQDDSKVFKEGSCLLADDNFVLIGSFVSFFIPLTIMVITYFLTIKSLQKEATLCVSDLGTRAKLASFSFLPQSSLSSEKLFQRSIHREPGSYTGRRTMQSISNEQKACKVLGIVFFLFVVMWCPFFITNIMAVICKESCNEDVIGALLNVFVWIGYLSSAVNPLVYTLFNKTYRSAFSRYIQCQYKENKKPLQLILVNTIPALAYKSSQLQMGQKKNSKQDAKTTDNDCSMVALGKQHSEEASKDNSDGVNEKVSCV
# [1] = agonist activity, Ca2+ flux, HEK293 cells
# [2] = agonist activity, Ca2+ flux, HEK293 cells, read-out: 5-HT2C EC50
# [3] = agonist activity, Ca2+ flux, CHO-K1 cells
# [4] = agonist activity, Ca2+ flux, CHO-K1 cells, read-out: 5-HT2B EC50
# [5] = agonist activity, Ca2+ flux, HEK293 cells, read-out: 5-HT2A EC50
smiles,measurement,setting,value
"CCCN(C)CCc1c[nH]c2ccc(C)c(O)c12 [Example P-65, 5-methyl-3-(2-(methyl(propyl)amino)ethyl)-1H-indol-4-ol]",Emax,5-HT2C receptor; [1],66.3%
same,EC50,5-HT2C receptor; [2],175 nM
same,Emax,5-HT2B receptor; [3],6.22%
same,EC50,5-HT2B receptor; [4],≥ 10000 nM
same,Emax,5-HT2A receptor; [1],78.8%
same,EC50,5-HT2A receptor; [5],56.1 nM
"CCN(C)CCc1c[nH]c2ccc(F)c(OC)c12 [Example P-92, N-ethyl-2-(5-fluoro-4-methoxy-1H-indol-3-yl)-N-methylethan-1-amine]",Emax,5-HT2C receptor; [1],75.3%
same,EC50,5-HT2C receptor; [2],17.9 nM
same,Emax,5-HT2B receptor; [3],25.1%
same,EC50,5-HT2B receptor; [4],> 10000 nM
same,Emax,5-HT2A receptor; [1],78%
same,EC50,5-HT2A receptor; [5],7.33 nM
"Cc1ccc(O)c2c(CCN(C)C(C)C)c[nH]c12 [Example P-87, 3-(2-(isopropyl(methyl)amino)ethyl)-7-methyl-1H-indol-4-ol]",Emax,5-HT2C receptor; [1],4.33%
same,EC50,5-HT2C receptor; [2],> 10000 nM
same,Emax,5-HT2B receptor; [3],-0.38%
same,EC50,5-HT2B receptor; [4],≥ 10000 nM
same,Emax,5-HT2A receptor; [1],62.4%
same,EC50,5-HT2A receptor; [5],113 nM
"CN(C)CCc1c[nH]c2ccc3oc(=O)[nH]c3c12 [Example P-125, 8-(2-(dimethylamino)ethyl)-1,6-dihydro-2H-oxazolo[4,5-e]indol-2-one]",EC50,5-HT2C receptor,538 nM
same,Emax,5-HT2C receptor; [1],56.7%
same,EC50,5-HT2B receptor,14.3 nM
same,Emax,5-HT2B receptor; [3],42.5%
same,EC50,5-HT2A receptor,48.5 nM
same,Emax,5-HT2A receptor; [1],75.5%
"CCN(CC)CCc1c[nH]c2ccc(C)c(OC)c12 [Example P-61, N, N-diethyl-2-(4-methoxy-5-methyl-1H-indol-3-yl)ethan-1-amine]",Emax,5-HT2C receptor; [1],75.8%
same,EC50,5-HT2C receptor; [2],444 nM
same,Emax,5-HT2B receptor; [3],46.3%
same,EC50,5-HT2B receptor; [4],> 10000 nM
same,Emax,5-HT2A receptor; [1],67.7%
same,EC50,5-HT2A receptor; [5],321 nM
"COc1ccc(F)c2[nH]cc(CCN(C(C)C)C(C)C)c12 [Example P-105, N-(2-(7-fluoro-4-methoxy-1H-indol-3-yl)ethyl)-N-isopropylpropan-2-amine]",Emax,5-HT2C receptor; [1],92.6%
same,EC50,5-HT2C receptor; [2],1200 nM
same,Emax,5-HT2B receptor; [3],127%
same,EC50,5-HT2B receptor; [4],134 nM
same,Emax,5-HT2A receptor; [1],91.2%
same,EC50,5-HT2A receptor; [5],147 nM
"CCN(C)CCc1c[nH]c2cc(F)cc(OC)c12 [Example P-96, N-ethyl-2-(6-fluoro-4-methoxy-1H-indol-3-yl)-N-methylethan-1-amine]",Emax,5-HT2C receptor; [1],79.6%
same,EC50,5-HT2C receptor; [2],60.2 nM
same,Emax,5-HT2B receptor; [3],19.6%
same,EC50,5-HT2B receptor; [4],> 10000 nM
same,Emax,5-HT2A receptor; [1],73.6%
same,EC50,5-HT2A receptor; [5],8 nM
"CCCN(C)CCc1c[nH]c2c(C)cc(OC)cc12 [Example P-52, N-(2-(5-methoxy-7-methyl-1H-indol-3-yl)ethyl)-N-methylpropan-1-amine]",Emax,5-HT2C receptor; [1],44.5%
same,EC50,5-HT2C receptor; [2],529 nM
same,Emax,5-HT2B receptor; [3],1.37%
same,EC50,5-HT2B receptor; [4],> 10000 nM
same,Emax,5-HT2A receptor; [1],58%
same,EC50,5-HT2A receptor; [5],161 nM
"CCCN(CCC)CCc1c[nH]c2c(C)cc(OC)cc12 [Example P-57, N, N-dipropyl-2-(5-methoxy-7-methyl-1H-indol-3-yl)ethan-1-amine]",Emax,5-HT2C receptor; [1],30.7%
same,EC50,5-HT2C receptor; [2],2860 nM
same,Emax,5-HT2B receptor; [3],9.45%
same,EC50,5-HT2B receptor; [4],> 10000 nM
same,Emax,5-HT2A receptor; [1],79.2%
same,EC50,5-HT2A receptor; [5],140 nM
"CC(C)N(C)CCc1c[nH]c2cc(F)c(F)cc12 [Example P-155, N-(2-(5,6-difluoro-1H-indol-3-yl)ethyl)-N-methylpropan-2-amine]",Emax,5-HT2C receptor; [1],83.7%
same,EC50,5-HT2C receptor; [2],50.7 nM
same,Emax,5-HT2B receptor; [3],45.4%
same,EC50,5-HT2B receptor; [4],≥ 10000 nM
same,Emax,5-HT2A receptor; [1],73.4%
same,EC50,5-HT2A receptor; [5],10.4 nM
"CCN(CC)CCc1c[nH]c2c(C)cc(OC)cc12 [Example P-54, N, N-diethyl-2-(5-methoxy-7-methyl-1H-indol-3-yl)ethan-1-amine]",Emax,5-HT2C receptor; [1],58%
same,EC50,5-HT2C receptor; [2],1750 nM
same,Emax,5-HT2B receptor; [3],7.69%
same,EC50,5-HT2B receptor; [4],> 10000 nM
same,Emax,5-HT2A receptor; [1],82.8%
same,EC50,5-HT2A receptor; [5],249 nM
"COc1cc(F)c2[nH]cc(CCN(C(C)C)C(C)C)c2c1 [Example P-118, N-(2-(7-fluoro-5-methoxy-1H-indol-3-yl)ethyl)-N-isopropylpropan-2-amine]",Emax,5-HT2C receptor; [1],97.1%
same,EC50,5-HT2C receptor; [2],695 nM
same,Emax,5-HT2B receptor; [3],95.2%
same,EC50,5-HT2B receptor; [4],66.3 nM
same,Emax,5-HT2A receptor; [1],82.2%
same,EC50,5-HT2A receptor; [5],17.4 nM
"CN(C)CCc1c[nH]c2c(F)cc(F)cc12 [Example P-156, 2-(5,7-difluoro-1H-indol-3-yl)-N,N-dimethylethan-1-amine]",Emax,5-HT2C receptor; [1],85.2%
same,EC50,5-HT2C receptor; [2],11.3 nM
same,Emax,5-HT2B receptor; [3],-4.13%
same,EC50,5-HT2B receptor; [4],> 10000 nM
same,Emax,5-HT2A receptor; [1],48%
same,EC50,5-HT2A receptor; [5],41.1 nM
"COc1cc2c(CCN(C)C)c[nH]c2cc1C [Example P-7, 2-(5-methoxy-6-methyl-1H-indol-3-yl)-N,N-dimethylethan-1-amine]",Emax,5-HT2C receptor; [1],81.1%
same,EC50,5-HT2C receptor; [2],110 nM
same,Emax,5-HT2B receptor; [3],1.71%
same,EC50,5-HT2B receptor; [4],> 10000 nM
same,Emax,5-HT2A receptor; [1],81.9%
same,EC50,5-HT2A receptor; [5],15.8 nM
"COc1c(F)ccc2[nH]cc(CCN(C)C)c12 [Example P-91, 2-(5-fluoro-4-methoxy-1H-indol-3-yl)-N,N-dimethylethan-1-amine]",Emax,5-HT2C receptor; [1],109%
same,EC50,5-HT2C receptor; [2],1.24 nM
same,Emax,5-HT2B receptor; [3],4.57%
same,EC50,5-HT2B receptor; [4],> 10000 nM
same,Emax,5-HT2A receptor; [1],74.9%
same,EC50,5-HT2A receptor; [5],2.33 nM
"CCN(CC)CCc1c[nH]c2cc(F)cc(OC)c12 [Example P-98, N,N-diethyl-2-(6-fluoro-4-methoxy-1H-indol-3-yl)ethan-1-amine]",Emax,5-HT2C receptor; [1],71.8%
same,EC50,5-HT2C receptor; [2],311 nM
same,Emax,5-HT2B receptor; [3],63.6%
same,EC50,5-HT2B receptor; [4],5430 nM
same,Emax,5-HT2A receptor; [1],64.3%
same,EC50,5-HT2A receptor; [5],16 nM
"CCN(CC)CCc1c[nH]c2ccc3oc(C)nc3c12 [Example P-134, N,N-diethyl-2-(2-methyl-6H-oxazolo[4,5-e]indol-8-yl)ethan-1-amine]",EC50,5-HT2C receptor,429 nM
same,Emax,5-HT2C receptor; [1],91.3%
same,EC50,5-HT2B receptor,59.9 nM
same,Emax,5-HT2B receptor; [3],56.4%
same,EC50,5-HT2A receptor,20.3 nM
same,Emax,5-HT2A receptor; [1],77.5%
"COc1cc(F)c2[nH]cc(CCN(C)C(C)C)c2c1 [Example P-116, N-(2-(7-fluoro-5-methoxy-1H-indol-3-yl)ethyl)-N-methylpropan-2-amine]",Emax,5-HT2C receptor; [1],60.5%
same,EC50,5-HT2C receptor; [2],720 nM
same,Emax,5-HT2B receptor; [3],23.1%
same,EC50,5-HT2B receptor; [4],136 nM
same,Emax,5-HT2A receptor; [1],60.2%
same,EC50,5-HT2A receptor; [5],15.7 nM
"CCCN(C)CCc1c[nH]c2c(C)ccc(O)c12 [Example P-86, 7-methyl-3-(2-(methyl(propyl)amino)ethyl)-1H-indol-4-ol]",Emax,5-HT2C receptor; [1],10%
same,EC50,5-HT2C receptor; [2],> 10000 nM
same,Emax,5-HT2B receptor; [3],-0.14%
same,EC50,5-HT2B receptor; [4],≥ 10000 nM
same,Emax,5-HT2A receptor; [1],66.9%
same,EC50,5-HT2A receptor; [5],110 nM
"CCN(CC)CCc1c[nH]c2ccc(C)c(O)c12 [Example P-67, 3-(2-(diethylamino)ethyl)-5-methyl-1H-indol-4-ol]",Emax,5-HT2C receptor; [1],78.2%
same,EC50,5-HT2C receptor; [2],922 nM
same,Emax,5-HT2B receptor; [3],11.7%
same,EC50,5-HT2B receptor; [4],≥ 10000 nM
same,Emax,5-HT2A receptor; [1],78.3%
same,EC50,5-HT2A receptor; [5],163 nM
"CCCN(CC)CCc1c[nH]c2c(C)cc(OC)cc12 [Example P-55, N-ethyl-N-(2-(5-methoxy-7-methyl-1H-indol-3-yl)ethyl)propan-1-amine]",Emax,5-HT2C receptor; [1],57.9%
same,EC50,5-HT2C receptor; [2],1810 nM
same,Emax,5-HT2B receptor; [3],13.2%
same,EC50,5-HT2B receptor; [4],> 10000 nM
same,Emax,5-HT2A receptor; [1],81.8%
same,EC50,5-HT2A receptor; [5],134 nM
"COc1c(F)ccc2[nH]cc(CCN(C(C)C)C(C)C)c12 [Example P-95, N-(2-(5-fluoro-4-methoxy-1H-indol-3-yl)ethyl)-N-isopropylpropan-2-amine]",Emax,5-HT2C receptor; [1],83%
same,EC50,5-HT2C receptor; [2],260 nM
same,Emax,5-HT2B receptor; [3],96.3%
same,EC50,5-HT2B receptor; [4],21.6 nM
same,Emax,5-HT2A receptor; [1],93.2%
same,EC50,5-HT2A receptor; [5],20 nM
"COc1ccc(F)c2[nH]cc(CCN(C)C)c12 [Example P-101, 2-(7-fluoro-4-methoxy-1H-indol-3-yl)-N,N-dimethylethan-1-amine]",Emax,5-HT2C receptor; [1],53.1%
same,EC50,5-HT2C receptor; [2],8.28 nM
same,Emax,5-HT2B receptor; [3],4.06%
same,EC50,5-HT2B receptor; [4],> 10000 nM
same,Emax,5-HT2A receptor; [1],71.6%
same,EC50,5-HT2A receptor; [5],3.84 nM

# From patent publication US20250101038A1, “COMPOUNDS” (priority 2021, published 2025)
